# From patent publication US20250009780A1, “AGENTS ENCODING CLDN6 AND CD3 BINDING ELEMENTS FOR TREATING CLDN6-POSITIVE CANCERS” (BIONTECH SE, priority 2021, published 2025)
# Like-named read-outs stand apart in the source and are kept apart here.
# Tests used:
# [1] = Metabolism of ALC-0159 in vitro and ex vivo; type: in vitro ADME, mouse, rat, monkey and human; conditions: yields N,N-ditetradecylamine; across species
# Source text: The metabolism of ALC-0159, was examined in vitro using blood, liver S9 fractions and hepatocytes, all from mouse, rat, monkey and human and ex vivo in the rat plasma, urine, feces, and liver from the PK study. […] This hydrolytic metabolism was observed across the species evaluated.
# [2] = Rat IV PK study of lipid excipient ALC-0159; type: in vivo, Wistar Han rats; conditions: for half-life: Wistar Han, rat, plasma, iv, 1.96 mg ALC-0159/kg, 1.96 mg ALC-0159/kg single IV
# Procedure: BNT142 contains the PEG lipid excipient ALC-0159 in the nanoparticle. […] ALC-0159 was then cleared from plasma with a terminal elimination ty, of 72.7 h. The estimated percent of lipid dose distributed to the liver was ˜20%.
# [3] = In vitro metabolic stability, S9 fractions; type: in vitro ADME, mouse, rat, monkey, and human; conditions: 120 min, all species
# Procedure: (§1) The in vitro metabolic stability of ALC-0366 (aminolipid) was evaluated in mouse, rat, monkey, and human liver microsomes, S9 fractions, and hepatocytes. ALC-0366 was stable over 120 min in liver microsomes (remaining ALC-0366 >89%) and S9 fractions (remaining ALC-0366 >88%) and over 240 min in hepatocytes (remaining ALC-0366 >94%) in all species and test systems.
# [4] = In vitro metabolic stability, hepatocytes; type: in vitro ADME, mouse, rat, monkey, and human; conditions: 240 min, all species
# Procedure: as §1
# [5] = In vitro metabolic stability, liver microsomes; type: in vitro ADME, mouse, rat, monkey, and human; conditions: 120 min, all species
# Procedure: as §1
# human PBMCs (T cells) [6] = experiment: T-cell proliferation assay (CFSE-labeled PBMCs, flow cytometry); type: cell-based; conditions: presence as well as absence of target cells
# Source text: CFSE-labeled human PBMCs from three healthy donors were co-cultured with CLDN6-positive PA-1 and OV-90 target cells or with CLDN6-negative but control TAA-positive NUGC-4 as well as target-negative MDA-MB-231 control cells in a 12-well culture plate format. An effector-to-target-cell ratio of 10:1 was applied. In addition, PBMCs without (−) target cells were included separately. […] OKT3 antibody (anti-human CD3; black bars) served as positive control for target-independent CD3-driven T-cell proliferation. After 72 h of incubation, the percentages of proliferating T cells were analyzed by flow cytometry.
# HEK-293T-17 producer cells were transfected with BNT142 or a control RiboMab-encoding RNA. Supernatants containing RiboMab02.1 or the control RiboMab (specific for an irrelevant TAA) were used as test items. Two concentrations (100 or 1 ng/mL) of RiboMab-containing supernatant were added to co-cultures of carboxyfluorescein succinimidyl ester (CFSE)-labeled human PBMCs and target-positive or -negative cells. PA-1 or OV-90 served as CLDN6-positive and MDA-MB-231 as target-negative cells. CLDN6-negative NUGC-4 cells (expressing the irrelevant TAA) as well as PBMCs in the absence of any target cells were included as further specificity controls. PBMCs from three healthy donors were compared in this assay. After 72 h of incubation, T cells were analyzed by flow cytometry to determine target-dependent proliferation.
# human PBMCs = experiment: In vitro human cytokine release (multiplex ELISA on T-cell activation assay supernatants); type: cell-based; conditions: positive control
# Procedure: Cytokine concentration values for each donor (means of technical triplicates) are shown. Filled symbols represent values with target cells while open symbols represent values without target cells.
# Cell culture supernatants obtained from the T-cell activation assay were analyzed to investigate the RiboMab02.1-dependent induction of on- and off-target cytokine release. The levels of human pro-inflammatory cytokines IFN-γ, IL-1β, IL-2, IL-6, IL-10 and TNF-α were measured using a customized multiplex ELISA kit.
# human PBMCs (T cells) [7] = experiment: T-cell activation assay (CD69/CD25, flow cytometry); type: cell-based; conditions: with and without target cells (data not shown)
# Procedure: Human PBMCs from three healthy donors (effector cells) were cultured in the presence and absence of CLDN6-positive PA-1 cells (target cells) at a 10:1 effector-to-target-cell ratio. RiboMab02.1-containing mouse serum was serially-diluted (10-fold, 10-point; range: 4.0×10^−6 to 4,000 ng/mL) prior to use in the assay. After 48 h of co-incubation, cells were stained with anti-CD5, anti-CD69 and anti-CD25 antibodies for flow cytometric analysis of T cells. Shown here is the total T-cell activation normalized to samples incubated with mock serum from Luc_RNA-LNP-treated mice. Percentages of activated T cells are shown for each individual donor (left) and for all three donors as mean (right). Filled symbols represent values with and black, open symbols without target cells.
# RiboMab02.1-containing as well as mock serum samples were obtained from mice administered either with BNT142 or luciferase encoding RNA-LNP (Luc_RNA-LNP; mock). Human PBMCs from three healthy donors were used as effector cells. Serum samples were serially-diluted (10-fold, 10-point), starting at 4,000 ng/mL, and added to PBMCs cultured alone or together with CLDN6-positive PA-1 target cells at an effector-to-target-cell ratio of 10:1. After 48 h of incubation, T cells were analyzed by flow cytometry for surface expression of the early and late activation markers CD69 and CD25, respectively. […] OKT3 positive control led to >50% T-cell activation with and without target cells (data not shown). Upregulation of CD69 on T cells was higher than that of CD25; CD25-positive cells were almost exclusively CD69 double-positive, pointing to an early activation state (data not shown).
# CLDN9 = molecular target: T1, CLDN9 (Homo sapiens, UniProt O95484); experiment: Cell microarray off-target binding assay, CLDN9; design: individually overexpressing 6,239 different full-length human plasma membrane proteins; expressed in transfected cells; host or cells: fixed human HEK293 cells; conditions: fixed HEK293 cells overexpressing target
# T1 sequence (O95484 1-217): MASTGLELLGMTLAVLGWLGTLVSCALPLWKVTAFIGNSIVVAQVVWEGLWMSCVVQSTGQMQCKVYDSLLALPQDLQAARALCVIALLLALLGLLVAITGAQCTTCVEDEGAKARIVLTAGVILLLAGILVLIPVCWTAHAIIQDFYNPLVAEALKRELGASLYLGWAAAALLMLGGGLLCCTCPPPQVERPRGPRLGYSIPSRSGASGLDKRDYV
# Source text: (§2) The tribody was screened for binding against fixed human HEK293 cells, individually overexpressing 6,239 different full-length human plasma membrane proteins and cell surface-tethered human secreted proteins, including 371 heterodimers.
# [8] = test system: human pro-inflammatory cytokines in NSG/PBMC mice; experiment: Human cytokine release in serum of NSG/PBMC mice; type: in vivo, mouse; conditions: 100 μg reference protein; 6-hour time point
# Procedure: An additional non-tumor-bearing (w/o tumor) group administered with 1 μg BNT142 was included. (A) Concentrations of human cytokines (IFN-γ, IL-6, IL-2, IL-10, TNF-α and IL-1β) in mouse serum as determined by multiplex ELISA at the 6- (n=8) and 72-hour (n=4) time points. Data was normalized to saline-administered animals of the respective time points. Horizontal lines indicate medians. Unpaired and paired samples were compared using the Mann-Whitney U test or Wilcoxon signed-rank test, respectively. […] Horizontal lines indicate means.
# The human pro-inflammatory cytokines IFN-γ, IL-1β, IL-2, IL-6, IL-10 and TNF-α were measured in serum samples of OV-90 human xenograft tumor-bearing NSG/PBMC mice obtained after 6 and 72 h of the third BNT142 administration (see above). An additional group of tumor-free NSG/PBMC mice was treated with 1 μg BNT142. […] Data were normalized to the values obtained with the saline control group at the respective time points.
# [9] = test system: CLDN6-positive human ovarian carcinoma (OV-90) xenograft; experiment: OV-90 xenograft model in PBMC-humanized NSG mice; type: in vivo, mouse
# Procedure: NSG mice bearing advanced SC tumor xenografts of OV-90 cells (mean tumor volume at treatment start=100 mm^3) were engrafted with human PBMCs as effector cells by IP injection. Tumor volume was measured twice per week with a digital caliper. […] (A) Treatment schedule. (B) Tumor volume of individual mice at designated time points. (C) Overview of the median tumor volume per group, each comprising 13 to 14 mice at the start of the study and a minimum of five mice at the last data points. The vertical dotted lines represent the time points of IV administration of test/control items. Four mice (five mice from the 0.1 μg BNT142 group) from all groups were euthanized on Day 38 to obtain samples for ex vivo assays. (D) Number of CD3-positive cells per mm^2 of xenograft tissue as determined by immunohistochemical (IHC) staining using an anti-human CD3 antibody. […] Horizontal lines represent the mean (n=4 to 5). (E) Percentage of CLDN6-positive cells in tumor xenografts of mice from the respective test and control groups as determined by IHC staining using an anti-human CLDN6 antibody. Tumor xenografts were dissected at different time points over the course of the study. Horizontal lines represent the mean (n=8 to 10). […] Reddish-brown staining (dark in the black and white figure) indicates a positive IHC signal while the bluish-purple areas indicate an absence of positive staining (negative IHC signal).
# To determine the anti-tumor efficacy of BNT142 in vivo, a CLDN6-positive human ovarian carcinoma (OV-90) xenograft mouse model was used. Briefly, immunodeficient male and female NOD.Cg-Prkd^scid IL2rg^tm1Wjl/SzJ (NSG) mice were subcutaneously (SC) inoculated with human OV-90 ovarian carcinoma cells. Mice with established tumors (mean size ≥30 mm^3) were engrafted intraperitoneally (IP) with human PBMCs from a healthy donor (resulting mouse model annotated as NSG/PBMC). Seven days later, a treatment regimen comprising five weekly single IV bolus injections of BNT142 or control items was initiated. BNT142 was administered at doses of 0.1 or 1 μg (˜0.004 and 0.04 mg/kg) per mouse. […]
# CLDN6 = molecular target: T2, CLDN6 (Homo sapiens, UniProt P56747); experiment: Cell microarray off-target binding assay, CLDN6; conditions: fixed HEK293 cells overexpressing target
# T2 construct: expressed in transfected cells
# T2 sequence (P56747 1-220): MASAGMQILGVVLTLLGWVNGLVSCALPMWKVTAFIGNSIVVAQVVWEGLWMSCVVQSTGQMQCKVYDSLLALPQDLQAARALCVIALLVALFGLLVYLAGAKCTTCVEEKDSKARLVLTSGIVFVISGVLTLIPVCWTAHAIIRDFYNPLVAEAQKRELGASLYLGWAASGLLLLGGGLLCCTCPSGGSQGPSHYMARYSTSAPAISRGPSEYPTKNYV
# Source text: as §2
# [10] = test system: 6,239 full-length human plasma membrane proteins and cell surface-tethered human secreted proteins; experiment: Cell microarray off-target binding assay, remaining panel; conditions: fixed HEK293 cells
# Source text: as §2
molecule,measurement,setting,value
"CCCCCCCCCCCCCCN(CCCCCCCCCCCCCC)C(=O)COCCOCCOCCOCCOCCOCCOCCOCCOCCOCCOCCOCCOCCOCCOCCOCCOCCOCCOCCOCCOCCOCCOCCOCCOCCOCCOCCOCCOCCOCCOCCOCCOCCOCCOCCOCCOCCOCCOCCOCCOCCOCCOCCOCCOCCOC [ALC-0159, 2-[(Polyethylene glycol)-2000]-N,N-ditetradecylacetamide]",metabolism,[1],metabolized relatively slowly by amide bond hydrolysis
same,excretion in urine,[2]; IV administration of RNA-LNP,no detectable excretion
same,percentage of dose excreted unchanged in feces,[2]; IV administration of RNA-LNP,~50%
same,half-life,[2]; read-out: initial plasma half-life (converted),1.72 h
same,half-life,[2]; read-out: terminal elimination half-life in plasma (converted),72.7 h
same,drop of plasma concentration,[2]; during 2 wk study,"approximately 8,000 fold"
same,estimated percent of lipid dose distributed to the liver,[2]; single IV,~20%
"CCCCCCC(CCCC)C(=O)OCCCCCCCCCN(CCCO)CCCCCCCCCOC(=O)C(CCCC)CCCCCC (centres unmarked) [ALC-0366, ((3-Hydroxypropyl)azanediyl)bis(nonane-9,1-diyl) bis(2-butyloctanoate)]",remaining ALC-0366,[3],> 88%
same,remaining ALC-0366,[4],> 94%
same,remaining ALC-0366,[5],> 89%
OKT3: human CD3-specific antibody used as positive control for T-cell activation [reference compound],T-cell activation (positive control in proliferation assay),human PBMCs (T cells) [6],strong activation
same,cytokine release,human PBMCs,induced cytokine release in the presence as well as absence of target cells
same,T-cell activation,human PBMCs (T cells) [7],> 50%
"reference protein: recombinant purified CD3×(CLDN6)2 tribody reference protein, sequence-identical to RiboMab02.1",interaction with CLDN9,CLDN9,weak off-target interaction
same,human cytokine elevation in serum,[8],transient but significant elevation of all six cytokines
same,start of tumor volume shrinkage,[9]; 100 μg reference protein IV once weekly x5,after the third treatment
same,TIL per mm^2 tumor tissue (average),"[9]; 100 μg reference protein, 72 h after third injection","1,542 per mm^2"
same,tumor reduction,[9]; treated groups in contrast to negative control groups,significant tumor reduction
same,interaction with CLDN6,CLDN6,specific interaction
same,other binding,[10],No other binding was observed
